Six compounds from patent US5286735A, “Derivatives of 4-aminomethylpiperidine, their preparation and their use as therapeutics” (Pierre Fabre Medicament, priority 1991, dated 1994) can be followed below.

Usually IC50 stands for the point on the concentration scale where inhibition reaches its midpoint.

The test has as its target T1, serotoninergic 5-HT1A receptors (Rattus norvegicus, UniProt P19327).
T1 construct: The hippocampus is crushed with Polytron; from tissue; host or cells: rat hippocampus membranes (male Charles River rats)
T1 sequence (P19327 1-422): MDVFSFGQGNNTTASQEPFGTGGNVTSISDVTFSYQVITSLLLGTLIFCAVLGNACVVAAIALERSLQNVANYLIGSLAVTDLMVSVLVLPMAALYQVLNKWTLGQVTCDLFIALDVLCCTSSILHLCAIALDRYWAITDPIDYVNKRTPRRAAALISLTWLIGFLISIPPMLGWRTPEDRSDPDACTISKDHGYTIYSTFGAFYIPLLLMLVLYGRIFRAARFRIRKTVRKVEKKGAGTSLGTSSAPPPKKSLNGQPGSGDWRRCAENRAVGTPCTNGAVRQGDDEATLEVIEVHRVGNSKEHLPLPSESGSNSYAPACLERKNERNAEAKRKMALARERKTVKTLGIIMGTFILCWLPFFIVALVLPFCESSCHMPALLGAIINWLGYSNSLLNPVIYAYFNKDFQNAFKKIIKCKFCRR
The test is described as follows: 5-HT1A binding studies (3H-8-OH-DPAT ligand, rat hippocampus membranes). The arrangement: species or system rat (male Charles River). As to conditions: 3H-8-OH-DPAT 1 nM, 30 min at 25° C. How it is done: The 5-HT1A binding studies were carried out in accordance with Peroutka's technique (see: Peroutka, S. J.: J. Neurochem. 47:529-540, 1986). Male Charles River rats are stunned and decapitated, the brain is removed and dissected. The different cerebral areas obtained are used or preserved at minus 20° C. The hippocampus is crushed with Polytron® (20 seconds at 7) in 20 volumes of 50 mM Tris-HCl buffer (pH 7.7 at 25° C.) and centrifuged at 45,000 g for 10 min. The residue is separated, taken up in the same volume of Tris buffer and incubated for 10 min at 37° C., and then again centrifuged for 10 min at 45, 000 g. The residue is then taken up in 100 volumes of Tris-HCl buffer containing 10 μm of Pargyline, 4 mM CaCl2 and 0.1% ascorbic acid. The mixture obtained is Dounce homogenized.
The binding is effected starting with 0.8 ml of the above membrane suspension to which 0.1 ml of ^3 H-8-OH-DPAT ligand is added (in a concentration of 1 nM) and either 0.1 ml of Tris buffer (control) or the compound of the present invention is added. After incubation for 30 min at 25° C., the mixture is filtered on GF/B (Whatman) and rinsed with 5 ml of iced Tris-HCl buffer. The residue and the filter are finally introduced into a vial containing 3 ml of Instage® scintillating liquid (Packard) and the radioactivity is measured with a Packard counter (Tri-Carbs®). The IC50 are determined graphically for a ligand concentration of 1 nM.
For the compound `Cc1cccc(C(=O)N2CCC(CNCC3Cc4ccccc4O3)CC2)c1` (stereo not drawn) [Compound 3, 1-(3-Methylbenzoyl) 4-[(2,3-dihydrobenzofuran-2-yl)methylaminomethyl] piperidine], the IC50 was 7.5 nM. As to `Cc1ccc(CN2CCC(CNCC3COc4ccccc4O3)CC2)cc1` (stereo not drawn) [Compound 17, 1-(4-Methylbenzyl) 4-(1,4-benzodioxan-2-ylmethylaminomethyl) piperidine], the IC50 was determined as 4.4 nM. Take `Clc1cccc(CN2CCC(CNCC3COc4ccccc4O3)CC2)c1` (stereo not drawn) [Compound 22, 1-(3-Chlorobenzyl) 4-(1,4-benzodioxan-2-ylmethylaminomethyl) piperidine]: the IC50 came out at 2.1 nM. Turning to `O=C(c1ccccc1)N1CCC(CNCC2COc3ccccc3O2)CC1` (stereo not drawn) [Compound 9, 1-Benzoyl 4-(1,4-benzodioxan-2-ylmethylaminomethyl) piperidine], the concentration for half-maximal inhibition (IC50) was 3 nM.

Turning to `Cc1cccc(C(=O)N2CCC(CNCC3CCc4ccccc4O3)CC2)c1` (stereo not drawn) [Compound 7, 1-(3-Methylbenzoyl) 4-[(3,4-dihydro 2[H].1-benzopyran-2-yl)methylaminomethyl] piperidine], the IC50 was found to be 3.8 nM.

Regarding `Cc1cccc(C(=O)N2CCC(CNCC3CCc4ccccc4C3)CC2)c1` (stereo not drawn) [Compound 5, 1-(3-Methylbenzoyl) 4-[(1,2,3,4-tetrahydronaphthalen-2-yl)methylaminomethyl] piperidine], the IC50 amounted to 12.5 nM.
